The values that follow come from paper PMC5317004 (Scientific Reports, 2017).

For data set [1], the system named is α7-nAChR. The conditions noted are these: cited from earlier work.
Data set [2] in a line: Time-dependent IVM partitioning into the CHO cell membrane (removal from aqueous phase, absorbance at 245 nm). Type of data set: physicochemical, Chinese hamster. The note with it: 4 μM IVM, 140,000 CHO cells in 1 ml. As to the method:
Figure 7 Recovery of ACh-evoked currents in the absence or presence of IVM. […] (B) Representative currents for the same experiment as in A, but with IVM (0.5 μM) added after peak IP1. Currents in A and B were measured at −60 mV. […] Red bars correspond to ACh-elicited currents where IVM was added as in panel B (N = 5). Error bars correspond to SEM. Asterisks correspond to unpaired, two-tailed Student’s t-tests with 0.001 < *P < 0.05, 0.0001 < **P < 0.001 and ***P < 0.0001. (D) Fractional removal of IVM from the aqueous phase of a 1-ml solutions containing 140,000 CHO cells and 4 μM IVM. Removal of IVM was determined following the indicated incubation times by measuring the absorbance of supernatants at 245 nm wavelength (e.g., Supplementary Fig. S3; Supplementary Materials and Methods). Note that, no IVM removal is indicated at the top of the y-axis. […]
To assess the IVM partitioning into the CHO cell plasma membrane during a short time period, we followed the procedure of Silberberg et al.[58] with a few modifications accounting for our experimental conditions. To this end, we incubated 140,000 CHO cells (correspond to 3.2 μM plasma membrane lipids[121]) with 4 μM IVM for either 0, 15 or 300 seconds, pelleted the cells by a brief centrifugation (30 seconds), and analyzed the extent of IVM removal from the aqueous solution (elaborated in the Supplementary Materials and Methods). […]

`CC[C@H](C)[C@H]1O[C@]2(CC[C@@H]1C)C[C@@H]1C[C@@H](C/C=C(\C)[C@@H](O[C@H]3C[C@H](OC)[C@@H](O[C@H]4C[C@H](OC)[C@@H](O)[C@H](C)O4)[C@H](C)O3)[C@@H](C)/C=C/C=C3\CO[C@@H]4[C@H](O)C(C)=C[C@@H](C(=O)O1)[C@]34O)O2` [IVM, Ivermectin]: the “decrease of the ACh-EC50 by IVM” value in data set [1] is 20 fold. For the same compound, the “IVM removed from the aqueous solution by the CHO cells” value is “no statistically significant amount” in data set [2] (15 seconds of incubation) and about 24% in data set [2] (5 minutes of incubation).
